The results in this text go back to ChEMBL document CHEMBL3045084, “Synthesis, antitubercular activity, and QSAR analysis of substituted nitroaryl analogs: chalcone, pyrazole, isoxazole, and pyrimidines” (2013).

The subject of this experiment is Mycobacterium tuberculosis. The experiment can be described thus: Antitubercular activity against Mycobacterium tuberculosis H37Rv ATCC 27294 assessed as growth inhibition after 28 days by agar dilution method. It counts as functional. Particulars: for MIC: Mycobacterium tuberculosis, H37Rv ATCC 27294, 672 h.

In brackets after ≈: the same amount, converted by molar mass.

On to `O=C(/C=C/c1ccc(Cl)cc1)c1ccc([N+](=O)[O-])cc1`, for which the “-logMIC” value stood at 4.362 and the minimal inhibitory concentration (MIC) is 43.5 µM (≈ 12.5 µg/mL).
On to `CN(C)c1ccc(/C=C/C(=O)c2ccc([N+](=O)[O-])cc2)cc1`, for which the “-logMIC” value came out at 4.074 and the MIC came to 84.5 µM (≈ 25 µg/mL).
The matching figures for `CN(C)c1ccc(C2CC(c3ccc([N+](=O)[O-])cc3)=NN2)cc1` (stereo not drawn): 3.489 and 323 µM (≈ 100 µg/mL).
The corresponding values for `COc1cc(C2CC(c3ccc([N+](=O)[O-])cc3)=NC(=O)N2)cc(OC)c1OC` (stereo not drawn) are 3.585 and 260 µM (≈ 100 µg/mL).
The matching figures for `O=[N+]([O-])c1ccc(C2=NC(=S)NC(c3ccc(Cl)cc3Cl)C2)cc1` (stereo not drawn): 4.481 and 32.9 µM (≈ 12.5 µg/mL).
On to `COc1ccc(C2CC(c3ccc([N+](=O)[O-])cc3)=NC(=S)N2)cc1OC` (stereo not drawn), for which the “-logMIC” value is 3.869 and the minimal inhibitory concentration (MIC) amounted to 135 µM (≈ 50.1 µg/mL).
The matching figures for `COc1ccc(OC)c(C2CC(c3ccc([N+](=O)[O-])cc3)=NC(=S)N2)c1` (stereo not drawn): 3.869 and 135 µM (≈ 50.1 µg/mL).
In the case of `O=[N+]([O-])c1ccc(C2=NC(=S)NC(c3ccc(F)cc3)C2)cc1` (stereo not drawn), the “-logMIC” value amounted to 4.418 and the MIC is 38 µM (≈ 12.5 µg/mL).
The corresponding values for `O=[N+]([O-])c1ccc(C2=NC(=S)NC(c3ccc(Br)cc3)C2)cc1` (stereo not drawn) are 4.492 and 32 µM (≈ 12.5 µg/mL).
Take `COc1cc(C2CC(c3ccc([N+](=O)[O-])cc3)=NC(=S)N2)cc(OC)c1OC` (stereo not drawn): the “-logMIC” value was 3.601 and the MIC was determined as 249 µM (≈ 100 µg/mL).
The matching figures for `CN(C)c1ccc(C2CC(c3ccc([N+](=O)[O-])cc3)=NC(=S)N2)cc1` (stereo not drawn): 3.848 and 141 µM (≈ 50.1 µg/mL).
`COc1cccc(C2CC(c3ccc([N+](=O)[O-])cc3)=NO2)c1` (stereo not drawn): the MIC was above 169 µM.
On to `O=[N+]([O-])c1ccc(C2=NOC(c3ccc(Cl)cc3)C2)cc1` (stereo not drawn), for which the “-logMIC” value is on record as 4.08 and the MIC came out at 83.3 µM (≈ 25.2 µg/mL).
Regarding `O=[N+]([O-])c1ccc(C2=NOC(c3cccc(Cl)c3)C2)cc1` (stereo not drawn), the minimal inhibitory concentration (MIC) is above 83.3 µM.
For the compound `COc1ccc(C2CC(c3ccc([N+](=O)[O-])cc3)=NO2)cc1OC` (stereo not drawn), the “-logMIC” value is 4.116 and the MIC stood at 76.7 µM (≈ 25.2 µg/mL).
Regarding `O=[N+]([O-])c1ccc(C2=NOC(c3ccc(Cl)cc3Cl)C2)cc1` (stereo not drawn), the “-logMIC” value worked out at 4.428 and the MIC stood at 37.3 µM (≈ 12.6 µg/mL).
The matching figures for `O=[N+]([O-])c1ccc(C2=NOC(c3ccc(F)cc3)C2)cc1` (stereo not drawn): 4.357 and 44 µM (≈ 12.6 µg/mL).
The matching figures for `O=C(/C=C/c1ccc(Br)cc1)c1ccc([N+](=O)[O-])cc1`: 5.026 and 9.43 µM (≈ 3.13 µg/mL).
As to `COc1cccc(C2CC(c3ccc([N+](=O)[O-])cc3)=NC(=O)N2)c1` (stereo not drawn), the “-logMIC” value amounted to 3.51 and the minimum inhibitory concentration (MIC) stood at 308 µM (≈ 100 µg/mL).
The corresponding values for `COc1ccc(C2CC(c3ccc([N+](=O)[O-])cc3)=NC(=O)N2)cc1` (stereo not drawn) are 3.811 and 154 µM (≈ 50.1 µg/mL).
With `O=C1N=C(c2ccc([N+](=O)[O-])cc2)CC(c2ccc(Cl)cc2)N1` (stereo not drawn), the “-logMIC” value is given as 4.419 and the MIC worked out at 38 µM (≈ 12.5 µg/mL).
The corresponding values for `O=C1N=C(c2ccc([N+](=O)[O-])cc2)CC(c2cccc(Cl)c2)N1` (stereo not drawn) are 4.419 and 38 µM (≈ 12.5 µg/mL).
Take `COc1ccc(C2CC(c3ccc([N+](=O)[O-])cc3)=NC(=O)N2)cc1OC` (stereo not drawn): the “-logMIC” value came out at 3.548 and the MIC worked out at 282 µM (≈ 100 µg/mL).
`COc1ccc(OC)c(C2CC(c3ccc([N+](=O)[O-])cc3)=NC(=O)N2)c1` (stereo not drawn): the MIC is above 282 µM.
Regarding `O=C1N=C(c2ccc([N+](=O)[O-])cc2)CC(c2ccc(Cl)cc2Cl)N1` (stereo not drawn), the “-logMIC” value worked out at 4.462 and the MIC came to 34.3 µM (≈ 12.5 µg/mL).
Consider `O=C1N=C(c2ccc([N+](=O)[O-])cc2)CC(c2ccc(F)cc2)N1` (stereo not drawn), for which the “-logMIC” value amounted to 4.697 and the minimal inhibitory concentration (MIC) came to 20 µM (≈ 6.26 µg/mL).
With `O=C1N=C(c2ccc([N+](=O)[O-])cc2)CC(c2ccc(Br)cc2)N1` (stereo not drawn), the “-logMIC” value was found to be 4.474 and the MIC is 33.4 µM (≈ 12.5 µg/mL).
As for `CN(C)c1ccc(C2CC(c3ccc([N+](=O)[O-])cc3)=NC(=O)N2)cc1` (stereo not drawn), the “-logMIC” value was 3.527 and the minimal inhibitory concentration (MIC) came out at 296 µM (≈ 100 µg/mL).
Consider `COc1cccc(C2CC(c3ccc([N+](=O)[O-])cc3)=NC(=S)N2)c1` (stereo not drawn), for which the “-logMIC” value was 3.531 and the MIC was 293 µM (≈ 100 µg/mL).
The matching figures for `COc1ccc(C2CC(c3ccc([N+](=O)[O-])cc3)=NC(=S)N2)cc1` (stereo not drawn): 3.531 and 293 µM (≈ 100 µg/mL).
The matching figures for `O=[N+]([O-])c1ccc(C2=NC(=S)NC(c3ccc(Cl)cc3)C2)cc1` (stereo not drawn): 4.439 and 36.2 µM (≈ 12.5 µg/mL).
The matching figures for `O=[N+]([O-])c1ccc(C2=NC(=S)NC(c3cccc(Cl)c3)C2)cc1` (stereo not drawn): 4.138 and 72.5 µM (≈ 25.1 µg/mL).
For the compound `COc1ccc(/C=C/C(=O)c2ccc([N+](=O)[O-])cc2)cc1OC`, the minimum inhibitory concentration (MIC) is above 79.9 µM.
For the compound `COc1ccc(OC)c(/C=C/C(=O)c2ccc([N+](=O)[O-])cc2)c1`, the “-logMIC” value is reported as 4.098 and the minimum inhibitory concentration (MIC) is 79.9 µM (≈ 25 µg/mL).
Regarding `O=C(/C=C/c1ccc(Cl)cc1Cl)c1ccc([N+](=O)[O-])cc1`, the “-logMIC” value was determined as 5.315 and the MIC was found to be 4.84 µM (≈ 1.56 µg/mL).
For `O=C(/C=C/c1ccc(F)cc1)c1ccc([N+](=O)[O-])cc1`, the “-logMIC” value is on record as 4.938 and the MIC is 11.6 µM (≈ 3.13 µg/mL).
The matching figures for `COc1cccc(C2CC(c3ccc([N+](=O)[O-])cc3)=NN2)c1` (stereo not drawn): 3.47 and 339 µM (≈ 101 µg/mL).
As for `COc1ccc(C2CC(c3ccc([N+](=O)[O-])cc3)=NN2)cc1` (stereo not drawn), the MIC is above 339 µM.
Take `O=[N+]([O-])c1ccc(C2=NNC(c3ccc(Cl)cc3)C2)cc1` (stereo not drawn): the “-logMIC” value worked out at 4.079 and the minimal inhibitory concentration (MIC) was 83.6 µM (≈ 25.2 µg/mL).
Take `O=[N+]([O-])c1ccc(C2=NNC(c3cccc(Cl)c3)C2)cc1` (stereo not drawn): the “-logMIC” value was 4.079 and the MIC is 83.6 µM (≈ 25.2 µg/mL).
The matching figures for `COc1ccc(C2CC(c3ccc([N+](=O)[O-])cc3)=NN2)cc1OC` (stereo not drawn): 3.813 and 154 µM (≈ 50.4 µg/mL).
The matching figures for `COc1ccc(OC)c(C2CC(c3ccc([N+](=O)[O-])cc3)=NN2)c1` (stereo not drawn): 3.813 and 154 µM (≈ 50.4 µg/mL).
As for `O=[N+]([O-])c1ccc(C2=NNC(c3ccc(Cl)cc3Cl)C2)cc1` (stereo not drawn), the “-logMIC” value was 4.427 and the MIC came out at 37.4 µM (≈ 12.6 µg/mL).
Regarding `O=[N+]([O-])c1ccc(C2=NNC(c3ccc(F)cc3)C2)cc1` (stereo not drawn), the “-logMIC” value is recorded as 4.355 and the MIC is 44.2 µM (≈ 12.6 µg/mL).
`COc1cc(C2CC(c3ccc([N+](=O)[O-])cc3)=NN2)cc(OC)c1OC` (stereo not drawn): the “-logMIC” value is reported as 3.852 and the minimum inhibitory concentration (MIC) is 141 µM (≈ 50.3 µg/mL).
Regarding `O=[N+]([O-])c1ccc(C2=NNC(c3ccc(Br)cc3)C2)cc1` (stereo not drawn), the “-logMIC” value is 4.139 and the MIC worked out at 72.7 µM (≈ 25.2 µg/mL).
Consider `COc1cccc(/C=C/C(=O)c2ccc([N+](=O)[O-])cc2)c1`, for which the “-logMIC” value was determined as 4.054 and the minimum inhibitory concentration (MIC) is 88.3 µM (≈ 25 µg/mL).
With `COc1ccc(/C=C/C(=O)c2ccc([N+](=O)[O-])cc2)cc1`, the minimum inhibitory concentration (MIC) was above 88.3 µM.
For the compound `O=C(/C=C/c1cccc(Cl)c1)c1ccc([N+](=O)[O-])cc1`, the “-logMIC” value was 4.362 and the MIC amounted to 43.5 µM (≈ 12.5 µg/mL).
Consider `CC[C@@H](CO)NCCN[C@@H](CC)CO` [ETHAMBUTOL], for which the “-logMIC” value worked out at 5.117 and the minimal inhibitory concentration (MIC) was 7.63 µM (≈ 1.56 µg/mL).
The corresponding values for `NNC(=O)c1ccncc1` [ISONIAZID] are 6.447 and 0.357 µM (≈ 0.049 µg/mL).
The matching figures for `CO[C@H]1/C=C/O[C@@]2(C)Oc3c(C)c(O)c4c(O)c(c(/C=N/N5CCN(C)CC5)c(O)c4c3C2=O)NC(=O)/C(C)=C\C=C\[C@H](C)[C@H](O)[C@@H](C)[C@@H](O)[C@@H](C)[C@H](OC(C)=O)[C@@H]1C` [RIFAMPIN]: 6.924 and 0.119 µM (≈ 0.0979 µg/mL).

By MIC is commonly meant the lowest concentration that inhibits growth of the organism.
